Reference: patent publication US4755610A, “Hapalindoles” (priority 1986, dated 1988)
Converted amounts (≈) assume the structure as drawn. Like-named read-outs stand apart in the source and are kept apart here.

Key:
Type in all cases: cell-based
[1] = system: Staphylococcus aureus X1.1; assay: In vitro antibacterial activity, standard agar-dilution assay
Proteus morganii PR15 = assay: as above; conditions: Morganella morganii
[2] = system: Klebsiella pneumoniae KAE; assay: as above
Candida albicans = assay: In vitro antifungal activity, standard disc-plate assay
[3] = system: Streptococcus pyogenes C203; assay: In vitro antibacterial activity, standard agar-dilution assay
[4] = system: Staphylococcus aureus S13E; assay: microbe, parasite or virus in culture
[5] = system: Staphylococcus aureus V41; assay: In vitro antibacterial activity, standard agar-dilution assay
[6] = system: Haemophilus influenzae C.L.; assay: as above
[7] = system: Staphylococcus epidermidis EPI1; assay: as above
Escherichia coli TEM = assay: as above
[8] = system: Acinetobacter calcoaceticus AC12; assay: as above
[9] = system: Trichophyton mentagrophytes; assay: In vitro antifungal activity, standard disc-plate assay
Escherichia coli N10 = assay: In vitro antibacterial activity, standard agar-dilution assay
[10] = system: Haemophilus influenzae 76; assay: as above
Shigella sonnei N9 = assay: as above
[11] = system: Staphylococcus aureus X400; assay: microbe, parasite or virus in culture
[12] = system: Streptococcus pneumoniae Park 1; assay: In vitro antibacterial activity, standard agar-dilution assay; conditions: PARK1
[13] = system: Streptococcus faecium ATCC 9790; assay: as above; conditions: Enterococcus faecium, ATCC9790
Escherichia coli EC14 = assay: as above
Salmonella sp. X514 = assay: as above
[14] = system: Staphylococcus epidermidis 222; assay: as above
[15] = system: Klebsiella pneumoniae X26; assay: as above
[16] = system: Klebsiella pneumoniae X68; assay: as above
[17] = system: Streptococcus sp group D 2041; assay: as above; conditions: GROUPD2041
[18] = Staphylococcus aureus X1.1, agar dilution, read-out: MIC
[19] = Proteus morganii PR15, agar dilution, read-out: MIC
[20] = Klebsiella pneumoniae KAE, agar dilution, read-out: MIC
[21] = disc-plate assay, read-out: MIC
[22] = Streptococcus pyogenes C203, agar dilution, read-out: MIC
[23] = Staphylococcus aureus V41, agar dilution, read-out: MIC
[24] = Haemophilus influenzae C.L., agar dilution, read-out: MIC
[25] = Staphylococcus epidermidis EPI1, agar dilution, read-out: MIC
[26] = Acinetobacter calcoaceticus AC12, agar dilution, read-out: MIC
[27] = Escherichia coli N10, agar dilution, read-out: MIC
[28] = Haemophilus influenzae 76, agar dilution, read-out: MIC
[29] = Shigella sonnei N9, agar dilution, read-out: MIC
[30] = Streptococcus pneumoniae Park 1, agar dilution, read-out: MIC
[31] = Streptococcus faecium ATCC 9790, agar dilution, read-out: MIC
[32] = Escherichia coli EC14, agar dilution, read-out: MIC
[33] = Salmonella sp. X514, agar dilution, read-out: MIC
[34] = Staphylococcus epidermidis 222, agar dilution, read-out: MIC
[35] = Klebsiella pneumoniae X26, agar dilution, read-out: MIC
[36] = Klebsiella pneumoniae X68, agar dilution, read-out: MIC
[37] = Streptococcus sp group D 2041, agar dilution, read-out: MIC

[C-]#[N+][C@@H]1[C@H](c2c[nH]c3ccccc23)[C@@H](C(=C)C)C[C@@H](Cl)[C@]1(C)C=C [Compound 5, Hapalindole E]
MIC ([1]; Staphylococcus aureus, X1.1): 4 µg/mL (≈ 11.8 µM)
MIC (Proteus morganii PR15; PR15): 32 µg/mL (≈ 94.4 µM)
MIC ([2]; Klebsiella pneumoniae): > 64 µg/mL
MIC (Candida albicans): 0.312 µg/mL (≈ 0.921 µM)
MIC ([3]; Streptococcus pyogenes, C203): > 64 µg/mL
MIC [4]: 2 µg/mL (≈ 5.9 µM)
MIC ([5]; Staphylococcus aureus, V41): 2 µg/mL (≈ 5.9 µM)
MIC ([6]; Haemophilus influenzae): 4 µg/mL (≈ 11.8 µM)
MIC ([7]; Staphylococcus epidermidis, EPI1): 2 µg/mL (≈ 5.9 µM)
MIC (Escherichia coli TEM): > 64 µg/mL
MIC ([8]; Acinetobacter calcoaceticus, AC12): > 64 µg/mL
MIC [9]: 0.625 µg/mL (≈ 1.84 µM)
MIC (Escherichia coli N10; Escherichia coli, N10): 16 µg/mL (≈ 47.2 µM)
MIC ([10]; Haemophilus influenzae, 76): 4 µg/mL (≈ 11.8 µM)
MIC (Shigella sonnei N9; Shigella sonnei, N9): > 64 µg/mL
MIC [11]: 4 µg/mL (≈ 11.8 µM)
MIC ([12]; Streptococcus pneumoniae): > 64 µg/mL
MIC [13]: 64 µg/mL (≈ 189 µM)
MIC (Escherichia coli EC14; Escherichia coli, EC14): 16 µg/mL (≈ 47.2 µM)
MIC (Salmonella sp. X514; Salmonella, SP.X514): > 64 µg/mL
MIC ([14]; Staphylococcus epidermidis, 222): 2 µg/mL (≈ 5.9 µM)
MIC ([15]; Klebsiella pneumoniae, X26): > 64 µg/mL
MIC ([16]; Klebsiella pneumoniae, X68): > 64 µg/mL
MIC ([17]; Streptococcus): > 64 µg/mL

C=C[C@@]1(C)[C@H](Cl)C[C@H](C(=C)C)[C@@H](c2c[nH]c3ccccc23)[C@H]1N=C=S [Compound 6, Hapalindole F]
MIC [1, 18]: 16 µg/mL (≈ 43.1 µM)
MIC (Proteus morganii PR15; [19]): > 64 µg/mL
MIC [2, 20]: > 64 µg/mL
MIC (Candida albicans; [21]): > 20 µg/mL
MIC [3, 22]: > 64 µg/mL
MIC [4]: 32 µg/mL (≈ 86.3 µM)
MIC [5, 23]: > 64 µg/mL
MIC [6, 24]: > 64 µg/mL
MIC [7, 25]: 4 µg/mL (≈ 10.8 µM)
MIC (Escherichia coli TEM): > 64 µg/mL
MIC [8, 26]: > 64 µg/mL
MIC [9, 21]: > 20 µg/mL
MIC (Escherichia coli N10; [27]): > 64 µg/mL
MIC [10, 28]: > 64 µg/mL
MIC (Shigella sonnei N9; [29]): > 64 µg/mL
MIC [11]: 32 µg/mL (≈ 86.3 µM)
MIC [12, 30]: > 64 µg/mL
MIC [13, 31]: 64 µg/mL (≈ 173 µM)
MIC (Escherichia coli EC14; [32]): > 64 µg/mL
MIC (Salmonella sp. X514; [33]): > 64 µg/mL
MIC [14, 34]: 4 µg/mL (≈ 10.8 µM)
MIC [15, 35]: > 64 µg/mL
MIC [16, 36]: > 64 µg/mL
MIC [17, 37]: 16 µg/mL (≈ 43.1 µM)

[C-]#[N+][C@@H]1[C@@H]2c3c[nH]c4cccc(c34)C(C)(C)[C@H]2C[C@@H](Cl)[C@]1(C)C=C [Compound 7, Hapalindole G]
MIC [1, 18]: 64 µg/mL (≈ 189 µM)
MIC (Proteus morganii PR15; [19]): > 64 µg/mL
MIC [2, 20]: > 64 µg/mL
MIC (Candida albicans; [21]): 10 µg/mL (≈ 29.5 µM)
MIC [3, 22]: 16 µg/mL (≈ 47.2 µM)
MIC [4]: 64 µg/mL (≈ 189 µM)
MIC [5, 23]: 64 µg/mL (≈ 189 µM)
MIC [6, 24]: 64 µg/mL (≈ 189 µM)
MIC [7, 25]: 8 µg/mL (≈ 23.6 µM)
MIC (Escherichia coli TEM): > 64 µg/mL
MIC [8, 26]: 16 µg/mL (≈ 47.2 µM)
MIC [9, 21]: 2.5 µg/mL (≈ 7.38 µM)
MIC (Escherichia coli N10; [27]): > 64 µg/mL
MIC [10, 28]: 64 µg/mL (≈ 189 µM)
MIC (Shigella sonnei N9; [29]): > 64 µg/mL
MIC [11]: 64 µg/mL (≈ 189 µM)
MIC [12, 30]: 16 µg/mL (≈ 47.2 µM)
MIC [13, 31]: > 64 µg/mL
MIC (Escherichia coli EC14; [32]): > 64 µg/mL
MIC (Salmonella sp. X514; [33]): > 64 µg/mL
MIC [14, 34]: 16 µg/mL (≈ 47.2 µM)
MIC [15, 35]: 64 µg/mL (≈ 189 µM)
MIC [16, 36]: > 64 µg/mL
MIC [17, 37]: > 64 µg/mL

[C-]#[N+][C@@H]1[C@H]2c3c[nH]c4cccc(c34)C(C)(C)[C@@H]2CC[C@]1(C)C=C [Compound 8, Hapalindole H]
MIC [1, 18]: > 64 µg/mL
MIC (Proteus morganii PR15; [19]): > 64 µg/mL
MIC [2, 20]: > 64 µg/mL
MIC (Candida albicans; [21]): 10 µg/mL (≈ 32.8 µM)
MIC [3, 22]: 32 µg/mL (≈ 105 µM)
MIC [4]: > 64 µg/mL
MIC [5, 23]: > 64 µg/mL
MIC [6, 24]: > 64 µg/mL
MIC [7, 25]: 32 µg/mL (≈ 105 µM)
MIC (Escherichia coli TEM): > 64 µg/mL
MIC [8, 26]: 16 µg/mL (≈ 52.6 µM)
MIC [9, 21]: 1.25 µg/mL (≈ 4.11 µM)
MIC (Escherichia coli N10; [27]): > 64 µg/mL
MIC [10, 28]: > 64 µg/mL
MIC (Shigella sonnei N9; [29]): > 64 µg/mL
MIC [11]: > 64 µg/mL
MIC [12, 30]: 32 µg/mL (≈ 105 µM)
MIC [13, 31]: > 64 µg/mL
MIC (Escherichia coli EC14; [32]): > 64 µg/mL
MIC (Salmonella sp. X514; [33]): > 64 µg/mL
MIC [14, 34]: 32 µg/mL (≈ 105 µM)
MIC [15, 35]: > 64 µg/mL
MIC [16, 36]: > 64 µg/mL
MIC [17, 37]: > 64 µg/mL
